From paper PMC3875306 (Bioorganic & medicinal chemistry letters, 2013)

How the values were obtained:
human mGlu1 = human mGlu1 (Homo sapiens, UniProt Q13255); experiment: Calcium mobilization mGlu1 assay; conditions: for LLE (ligand-lipophilicity efficiency): LLE = pIC50 - cLogP; for preference in mGlu1 NAM activity for the R-enantiomer versus the S-enantiomer: 15 vs 14, 17 vs 16
[1] = test system: rat models of post-operative pain; conditions: cited from earlier work
[2] = test system: rat models of neuropathic pain; conditions: cited from earlier work
mGlu2–8 = conditions: at 10 µM
in vivo = conditions: male, Sprague-Dawley, rat, plasma, iv, 0.2 mg/kg
[3] = test system: 68 clinically relevant GPCRs, ion channels, kinases, and transporters; experiment: Radioligand binding assay panel; conditions: 10 µM; significant = more than 50% inhibition of radioligand binding
rat mGlu1 = rat mGlu1 (Rattus norvegicus, UniProt P23385); experiment: Functional cell based assay against rat mGlu1; conditions: HEK 293A TREx cells expressing rat mGlu1
[4] = IV dosing, rat, in words
rat model of anxiety = conditions: cited from earlier work
[5] = test system: squirrel monkey models of addiction; conditions: cited from earlier work
[6] = test system: acoustic prepulse inhibition models; conditions: cited from earlier work
rat models of addiction = conditions: cited from earlier work

Chain of human mGlu1 (Q13255 19-1194): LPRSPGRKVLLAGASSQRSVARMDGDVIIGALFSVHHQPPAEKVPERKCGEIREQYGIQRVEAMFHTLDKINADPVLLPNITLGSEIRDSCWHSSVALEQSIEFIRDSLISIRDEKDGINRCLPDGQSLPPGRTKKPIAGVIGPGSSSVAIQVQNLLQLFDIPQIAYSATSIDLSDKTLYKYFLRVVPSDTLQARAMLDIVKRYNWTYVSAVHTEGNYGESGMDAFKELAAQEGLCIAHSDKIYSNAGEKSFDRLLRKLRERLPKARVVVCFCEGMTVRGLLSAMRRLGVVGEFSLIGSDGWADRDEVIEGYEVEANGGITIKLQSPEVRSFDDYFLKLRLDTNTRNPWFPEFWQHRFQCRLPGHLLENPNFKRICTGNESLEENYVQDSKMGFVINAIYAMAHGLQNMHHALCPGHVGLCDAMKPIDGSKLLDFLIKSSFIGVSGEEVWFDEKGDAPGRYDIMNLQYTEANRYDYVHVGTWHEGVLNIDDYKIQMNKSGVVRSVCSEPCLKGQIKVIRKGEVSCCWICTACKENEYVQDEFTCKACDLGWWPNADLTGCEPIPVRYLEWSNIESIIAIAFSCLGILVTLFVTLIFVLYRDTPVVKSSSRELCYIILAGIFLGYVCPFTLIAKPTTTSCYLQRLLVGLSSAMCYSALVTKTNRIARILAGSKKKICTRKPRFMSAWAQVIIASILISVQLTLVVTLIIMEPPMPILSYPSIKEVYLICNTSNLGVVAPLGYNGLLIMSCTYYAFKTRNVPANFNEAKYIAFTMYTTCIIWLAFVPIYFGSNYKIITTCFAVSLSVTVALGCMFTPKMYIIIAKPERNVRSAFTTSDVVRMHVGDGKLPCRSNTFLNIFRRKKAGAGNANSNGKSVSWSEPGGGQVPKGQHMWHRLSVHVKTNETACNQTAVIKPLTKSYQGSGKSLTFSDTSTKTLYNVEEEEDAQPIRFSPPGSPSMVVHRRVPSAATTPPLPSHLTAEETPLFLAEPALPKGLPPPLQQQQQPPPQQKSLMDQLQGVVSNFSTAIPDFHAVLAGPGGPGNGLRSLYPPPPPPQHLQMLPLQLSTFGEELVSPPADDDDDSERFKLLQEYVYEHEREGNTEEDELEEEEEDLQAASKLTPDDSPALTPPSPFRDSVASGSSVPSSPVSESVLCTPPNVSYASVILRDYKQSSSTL
Chain of rat mGlu1 (P23385 19-1199): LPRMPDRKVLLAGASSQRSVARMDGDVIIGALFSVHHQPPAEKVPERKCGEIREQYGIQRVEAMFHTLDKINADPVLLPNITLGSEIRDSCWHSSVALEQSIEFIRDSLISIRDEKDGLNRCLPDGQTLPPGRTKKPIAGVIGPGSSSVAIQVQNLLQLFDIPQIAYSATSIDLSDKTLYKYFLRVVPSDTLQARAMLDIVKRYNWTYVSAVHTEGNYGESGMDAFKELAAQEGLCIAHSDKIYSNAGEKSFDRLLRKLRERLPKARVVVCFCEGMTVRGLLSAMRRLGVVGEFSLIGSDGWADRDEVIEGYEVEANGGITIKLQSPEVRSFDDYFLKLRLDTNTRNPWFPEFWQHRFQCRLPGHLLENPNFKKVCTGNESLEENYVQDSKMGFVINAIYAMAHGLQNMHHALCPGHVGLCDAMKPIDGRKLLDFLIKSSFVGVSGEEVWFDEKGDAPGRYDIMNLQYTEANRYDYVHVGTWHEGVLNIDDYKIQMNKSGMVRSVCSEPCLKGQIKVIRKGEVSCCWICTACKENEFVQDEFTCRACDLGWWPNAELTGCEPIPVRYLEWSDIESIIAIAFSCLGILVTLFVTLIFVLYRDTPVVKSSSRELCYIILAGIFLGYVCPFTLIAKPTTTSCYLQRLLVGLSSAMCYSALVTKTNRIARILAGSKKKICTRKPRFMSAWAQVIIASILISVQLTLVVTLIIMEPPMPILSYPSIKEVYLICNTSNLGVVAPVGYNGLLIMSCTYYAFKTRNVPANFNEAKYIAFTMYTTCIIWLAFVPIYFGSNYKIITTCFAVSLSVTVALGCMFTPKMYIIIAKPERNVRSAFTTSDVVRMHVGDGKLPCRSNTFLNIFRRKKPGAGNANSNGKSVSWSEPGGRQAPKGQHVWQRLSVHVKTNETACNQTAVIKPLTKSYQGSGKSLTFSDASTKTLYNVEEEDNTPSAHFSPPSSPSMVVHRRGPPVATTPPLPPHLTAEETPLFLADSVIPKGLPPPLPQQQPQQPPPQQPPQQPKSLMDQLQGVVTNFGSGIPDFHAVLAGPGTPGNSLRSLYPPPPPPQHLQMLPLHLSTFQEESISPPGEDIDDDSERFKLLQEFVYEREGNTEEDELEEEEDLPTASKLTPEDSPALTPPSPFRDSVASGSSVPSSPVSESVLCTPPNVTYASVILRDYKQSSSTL

## C[C@@H]1CN(c2ccc(F)cn2)CCN1C(=O)C12CC3CC(CC(C3)C1)C2 [Compound 49]
Human mGlu1
  LLE (ligand-lipophilicity efficiency): 1.73

## C[C@@H]1CN(c2ccccn2)CCN1C(=O)C12CC3CC(CC(C3)C1)C2 [Compound 15]
Human mGlu1
  preference in mGlu1 NAM activity for the R-enantiomer versus the S-enantiomer: 15 fold

## C[C@@H]1CN(c2cccc(F)n2)CCN1C(=O)C12CC3CC(CC(C3)C1)C2 [Compound 48]
Human mGlu1
  LLE (ligand-lipophilicity efficiency): 1.85

## C[C@@H]1CN(C(=O)C23CC4CC(CC(C4)C2)C3)CCN1c1ccncc1 [Compound 39]
Human mGlu1; 30 µM
  mGlu1 activity at the top concentration tested: no activity

## C[C@@H]1CN(C(=O)C23CC4CC(CC(C4)C2)C3)CCN1c1ccccn1 [Compound 17]
Human mGlu1
  preference in mGlu1 NAM activity for the R-enantiomer versus the S-enantiomer: sixfold

## CN(C)c1ccnc2sc3c(=O)n(N4CCCCCC4)cnc3c12 [Compound 2]
[1]
  analgesia in rat models of post-operative pain: analgesic
[2]
  analgesia in rat models of neuropathic pain: analgesic

## C[C@@H]1CN(c2ccccc2C#N)CCN1C(=O)C12CC3CC(CC(C3)C1)C2 [Compound 46]
Human mGlu1
  LLE (ligand-lipophilicity efficiency): 1.82

## C[C@@H]1CN(c2ccncc2C#N)CCN1C(=O)C12CC3CC(CC(C3)C1)C2 [Compound 53]
Human mGlu1
  LLE (ligand-lipophilicity efficiency): 2.89

## C[C@@H]1CN(c2ncccc2C#N)CCN1C(=O)C12CC3CC(CC(C3)C1)C2 [Compound 51]
Human mGlu1
  LLE (ligand-lipophilicity efficiency): 2.24

## C[C@@H]1CN(c2cccnc2C#N)CCN1C(=O)C12CC3CC(CC(C3)C1)C2 [Compound 54]
mGlu2–8
  activity against mGlu2–8: inactive
In vivo
  half-life: ~1 h
[3]
  responses in radioligand binding panel of 68 targets: no significant responses
Rat mGlu1
  activity at rat mGlu1 compared with human mGlu1: little difference across species
[4]
  clearance: moderate to high
  volume of distribution: moderate

## COC1CCC(C(=O)c2ccc3nc4c(cc3c2)CCCO4)CC1 (centres unmarked) [Compound 1]
Rat model of anxiety
  efficacy in a rat model of anxiety: efficacious
[5]
  efficacy in squirrel monkey models of addiction: efficacious
[6]
  antipsychotic activity, acoustic prepulse inhibition models, mice: Antipsychotic activity
Rat models of addiction
  efficacy in rat models of addiction: efficacious
